Data as given in US8168212B2, “Topical compositions comprising non-proteogenic amino acids and methods of treating skin” (Avon Products, Inc, priority 2007, dated 2012).

Assays:
[1] = tested on: LOXL1 regulatory elements (promoter region of the LOXL1 gene); test: LOXL1 promoter luciferase-reporter assay in transfected fibrosarcoma cells; format: cell-based, human; conditions: 1 μg/ml, 24 h, HTI080 cells, triplicate tests, p<0.05
Source text: Vector construction, transfection and expression: The promoter region of the LOXL1 gene was isolated and cloned into the pGL3 Luciferase reporter plasmid (Promega) by standard methods known in the art and according to manufacturer's instructions. The LOXL1/pGL3 vector and the control vector pRL-NULL (Promega), containing no regulatory elements, were contransfected into the human fibrosarcoma line HTI080 using LipofectAMINE™ LTX Reagent (Invitrogen) according to manufacturer's directions.
Transfected cells were allowed to recover for 24 h. The culture medium was then replaced with fresh medium containing various concentrations of L-4 Thiazolylalanine, and the transfected cells cultured for an additional 24 h.
The cultures were subsequently washed with PBS and exposed to 100 μl cell lysis buffer/25 cm^2 culture area and gently shaken at room temperature for 30 min. The culture flasks containing the cell lysate were then immediately placed at −80° C.
The activity of the reporter gene, firefly luciferase, was determined according to the manufacturer's instructions (Dual-Luciferase® Reporter Assay System, Promega). Briefly, the activity of the reporter gene is determined relative to that of a control vector encoding a second luciferase gene, that from Renilla reniformis. […]

[2] = tested on: human skin; test: Human clinical patch study, histology of skin samples (Trichrome collagen and Alcian blue GAG staining); format: in vivo; conditions: 0.01% solution, topical semi-occlusive patch on outer forearm, 15 applications
Protocol: In order to ascertain the effect of L-4 thiazolylalanine on collagen levels in human skin in vivo, a test was conducted on about 25 women aged 35-65 years. This human clinical study was approved by an Institutional Review Board and informed consent from the subjects was obtained prior to commencement of the study. The study was conducted in accordance with Title 21 of the Code of Federal Regulations, parts 50 and 56.
A solution of 0.01% L-4 Thiazolylalanine was made up in a vehicle of Propylene glycol:Ethanol:Water at a ratio of 70:20:10. The experimental design of the test was as follows: Thiazolylalanine solution or the vehicle solution without thiazolylalanine was applied to the outer forearm on a 2×2 area of skin (@2 mg/cm2) under a semi-occlusive patch for 24 hours, after which the patch was removed and a fresh patch was applied. This was repeated for 5 days (Monday-Friday), then subjects were rested for the weekend. Patch application was continued in the same manner for the next two weeks, for a total of 15 applications. […] The intensity of the collagen and GAG staining was assessed visually under the microscope. […]

[3] = tested on: CGRP; test: CGRP enzyme immunoassay of conditioned medium of PC-12 cells; format: cell-based, rat; conditions: 0.01%, 24 h, p<0.05
Protocol: Cell culture: PC-12 cells were cultured in FK12 medium supplemented with nerve growth factor according to routine methods known in the art. PC12 cells are derived from a rat pheochromocytoma and terminally differentiate on exposure to nerve growth factor. Once the cells begin to differentiate, they express CGRP. Cultures were incubated in medium containing L-4 Thiazolylalanine for another 24 h. after which conditioned medium was collected and assayed for the presence of CGRP.
CGRP Immunoassay: The presence of CGRP in the test samples was assayed by a sandwich ELISA immunoassay kit. Briefly, test and control samples of conditioned media are mixed with an anti-CGRP antibody conjugated to acetylcholinesterase (the “tracer antibody”), and the mixtures added to plates pre-coated with a monoclonal anti-CGRP antibody (binding to a different epitope of CGRP than the tracer antibody) that had been blocked for non-specific binding. The samples were incubated in the plates and the plates washed and the bound acetylcholinesterase activity determined using Ellman's reagent according to routine methods known in the art. The absorbance of the reagent is directly proportional to the concentration of CGRP in the sample.
The percent change in CGRP expression due to L-4 Thiazolylalanine treatment was calculated according to the formula: […]

[4] = tested on: fibronectin; test: Competitive inhibition ELISA of fibronectin in conditioned media of human dermal fibroblasts; format: cell-based; conditions: 72 hours, P < 0.05
Protocol: Cell culture: Human dermal fibroblasts (Cascade Biologics) were cultured in 12-well tissue culture plates in growth medium (DMEM, 5% FBS, 1% L-Glut, and 1% antibiotics) and incubated for 24 hours at 37° C. Cells treated with test active diluted in growth medium and incubated for 72 hours at 37° C., after which conditioned media was collected and assayed for the presence of fibronectin. […].
Competitive inhibition ELISA: The presence of fibronectin in the test samples was assayed by a competitive ELISA kit (Chemicon International). Briefly, test and control samples of conditioned media were incubated with a HRP-conjugated, rabbit polyclonal anti-human fibronectin antibody at room temperature for about 10 minutes. The sample/antibody mixture was then transferred to a microtiter plate precoated with a standard amount of human fibronectin that had been blocked for non-specific binding. The plate was incubated for one hour at room temperature, followed by a PBS wash and detection of bound antibody (i.e., detection of bound HRP) by routine methods known in the art. The amount of bound antibody is inversely proportional to the amount of fibronectin in the sample.
The percent change in fibronectin expression due to L-4 Thiazolylalanine treatment was calculated according to the formula: […]

[5] = tested on: β1 integrin; test: Whole cell ELISA of β1 integrin expression in human dermal fibroblasts; format: cell-based; conditions: 0.01% (w/v), 24 hours
Protocol: Cell culture: Human dermal fibroblasts (Cascade Biologics) were cultured in growth medium (DMEM, 5% FBS, 1% L-Glut, and 1% antibiotics) overnight in 60 mm dishes at 3.5×10^5 cells/ml. Cells were treated with test active or vehicle control diluted in growth medium and incubated for 24 hours at 37° C.
Whole cell ELISA: A B1 integrin kit from Chemicon International was used to assay the expression of B1 integrin on the cell surface following treatment with L-4 thiazolylalanine Medium was aspirated and plates were incubated at 37° C. with Cell Dissociation Buffer (provided with the kit) for 20-25 minutes, cells were centrifuged and resuspended in DMEM without supplements. 100 μl of the cell suspension was added to microtiter plates precoated with a murine anti-human β1 antibody (Chemicon International) that had been blocked for non-specific binding, and the plates incubated at 37° C. for 2 h. Adherent cells were quantitated by a cell staining kit (Chemicon International) according to manufacturer's instructions. Briefly, plates were washed in PBS and adherent cells stained by incubation for 5 min. at room temperature in the kit staining solution. […] Extraction buffer was then added to each well and the plate read at 570 nm on a spectrophotometer.
The percent change in β1 integrin expression was calculated according to the formula: […]

[6] = tested on: calcineurin; test: Ex-vivo DiFMUP phosphatase assay of calcineurin activity; format: biochemical
Protocol: Ex-vivo phosphatase assay: The modulation of calcineurin activity was monitored using a DiFMUP (6,8-difluoro-7-hydroxy-4-methylcoumarin phosphate) phosphatase assay well characterized in the art (see, e.g., Wegner et al., 2007, Methods Mol. Biol. 365:61-69, hereby incorporated by reference in its entirety). Dephosphorylation of DiFMUP leads to the formation of a highly fluorescent and stable product: […].
Varying concentrations of L-4 Thiazolylalanine were added to a reaction buffer consisting of 50 mM Tris-HCL, pH 7.4, 0.0125% BSA, 0.1 mM CaCl, 400 U/ml calmodulin and 1 mM NiCl. The L-4 Thiazolylalanine/reaction buffer mixture was incubated at 37° C. for 30 min. DiFMU substrate was then added to a concentration of 10 μM, and the mixture returned to 37° C. incubation for a further 15 min. Fluorescence intensity was determined on a Spectrofluorometer.

N[C@@H](Cc1cscn1)C(=O)O [L-4 Thiazolylalanine, L-4-thiazolylalanine]
increase in expression of the reporter gene [1]: 57%
subjects with an increase in GAG staining relative to skin treated with the vehicle ([2]; 13/21 subjects): 62%
subjects with increased collagen staining in treated sites versus vehicle treated site ([2]; 18/21 subjects): 86%
increase in expression of CGRP [3]: 69.93%
Percent Change in fibronectin expression ([4]; Concentration 0.00001%): 54.34% (P < 0.05)
Percent Change in fibronectin expression ([4]; Concentration 0.0001%): 31.03% (P < 0.05)
Percent Change in fibronectin expression ([4]; Concentration 0.001%): 36.11% (P < 0.05)
increase in the expression of B1 integrin [5]: 225%
increase of calcineurin activity ([6]; 0.0001% weight/volume (lowest concentration tested)): 6%
decrease of calcineurin activity ([6]; 0.001% concentration): 11%
decrease of calcineurin activity ([6]; 0.01% concentration): 63%
IC-50 (calcineurin activity), estimated ([6]; estimated): ~0.064%
